Measured values published in US20250127770A1, “FORMULATIONS OF RADIPRODIL” (GRIN Therapeutics, Inc., priority 2021, published 2025).

How the values were obtained:
[1] = Stability study of radiprodil solid forms (dihydrate vs anhydrous form A); assay type: physicochemical; settings: in presence of water
[2] = Dissolution test, USPII paddle apparatus, 0.5% sodium lauryl sulphate solution in water; assay type: physicochemical; settings: without reconstitution in SYRSPEND SF and water prior to the test; FIG. 2
Description: This study summarizes dissolution experiments preformed on the radiprodil drug substance and on the drug product including two drug loadings with and without reconstitution in SYRSPEND® and water prior to the dissolution test.
All dissolution experiments were performed on six vessels and the comparative curves were plotted using the average of them.
Some dissolution experiments were performed using prior to the dissolution a reconstitution in Syrpend® and water. In that case, the reconstitution was prepared and let under stirring for 1 night prior to the dissolution test. In order to mimic the clinical pharmacy manual, an additional test was performed with an extemporaneous suspension (15 min under stirring prior to the dissolution).
Dissolution and high performance liquid chromatography (HPLC) parameters used in the experiments are provided below in Tables […] and 12, respectively.
Radiprodil, as the dihydrate and Form A, as well as Form A containing granules (1% and 10% as described above) and blends of dihydrate and Form A (1% and 10% blends of dihydrate form and Form A) were submitted to dissolution tests in sodium lauryl sulfate (0.5% in water). […]

| Structure (SMILES) | Stability of solid form [1] | Dissolution profile [2] |
| --- | --- | --- |
| O=C(Nc1ccc2[nH]c(=O)oc2c1)C(=O)N1CCC(Cc2ccc(F)cc2)CC1 (single isomer, unassigned) [anhydrous form A, Radiprodil] | more stable than the dihydrate even in presence of water |  |
| O=C(Nc1ccc2[nH]c(=O)oc2c1)C(=O)N1CCC(Cc2ccc(F)cc2)CC1 [dihydrate form, Radiprodil] |  | more rapid in aqueous media than the one of anhydrous form A |
